Data on one compound can be found in patent US6972294B1, “Compounds, their preparation and use” (Novo Nordisk, A/S, priority 1999, dated 2005).

SMILES strings stand for the structures.

The melting point is the temperature of the solid-liquid transition. For `CCOC(=O)C(Cc1ccc(OCC=C(c2ccccc2)c2ccncc2)cc1)OCC` (stereo not shown) [Example 29, 2-Ethoxy-3-[4-(3-phenyl-3-pyridin-4-yl-allyloxy)-phenyl]-propionic acid ethyl ester], the melting point fell in the range of 84 to 87 °C.
